Test system: Erysiphe [syn. Blumeria] graminis forma specialis tritici
Test: Protective activity against mildew of wheat (potted wheat seedlings, greenhouse)
Type: in vivo
Conditions: wheat cv. Kanzler, 7 days
Method: The active compounds, separately or together, were formulated as a 10% emulsion in a mixture of 63% by weight of cyclohexanone and 27% by weight of emulsifier, and diluted with water to the desired concentration.
Evaluation was carried out by determining the infected leaf areas in percent. These percentages were converted into efficacies. The efficacy (W) was calculated as follows using Abbot's formula: […] • α corresponds to the fungal infection of the treated plants in % and • β corresponds to the fungal infection of the untreated (control) plants in %
An efficacy of 0 means that the infection level of the treated plants corresponds to that of the untreated control plants; an efficacy of 100 means that the treated plants were not infected.
The expected efficacies of the mixtures of the active compounds were determined using Colby's formula [R. S. Colby, Weeds 15, 20–22 (1967)] and compared with the observed efficacies. Colby's formula: E=x+y−x·y/100 • E expected efficacy, expressed in % of the untreated control, when using the mixture of the active compounds A and B at the concentrations a and b • x efficacy, expressed in % of the untreated control, when using active compound A at a concentration of a • y efficacy, expressed in % of the untreated control, when using active compound B at a concentration of b.
Protective Activity Against Mildew of Wheat Caused by Erysiphe [syn. Blumeria] graminis forma specialis tritici
Leaves of potted wheat seedlings of the cultivar “Kanzler” were sprayed to runoff point with an aqueous preparation of active compound which had been prepared from a stock solution made of 10% of active compound, 85% of cyclohexanone and 5% of emulsifier and, 24 hours after the spray coating had dried on, dusted with spores of mildew of wheat (Erysiphe [syn. Blumeria] graminis forma specialis. tritici). The test plants were then placed in a greenhouse at 20–24° C. and 60–90% relative atmospheric humidity. After 7 days, the extent of the mildew development was determined visually in % infection of the total leaf area.
The visually determined percentages of infected leaf area were converted into efficacies as % of the untreated control. An efficacy of 0 means that the infection level of the treated plants corresponds to that of the untreated control; an efficacy of 100 means 0% infection. The expected efficacies of the combinations of active compounds were determined using Colby's formula (Colby, S. R. (Calculating synergistic and antagonistic responses of herbicide Combinations”, Weeds, 15, pp. 20–22, 1967) and compared with the observed efficacies.

[1] = 0.6 ppm active compound in the spray liquor
[2] = 1.25 ppm active compound in the spray liquor

| Compound | Efficacy in % of the untreated control (0.3 ppm active compound in the spray liquor) [%] | Efficacy in % of the untreated control [1] [%] | Efficacy in % of the untreated control [2] [%] | Efficacy in % of the untreated control (2.5 ppm active compound in the spray liquor) [%] |
| --- | --- | --- | --- | --- |
| Fc1ccc([C@]2(Cn3cncn3)O[C@H]2c2ccccc2Cl)cc1 (racemic) [III.a, (2RS,3SR)-1-[3-(2-chlorophenyl)-2-(4-fluorophenyl)-oxiran-2-ylmethyl]-1H-1,2,4-triazole] | 4 | 4 | 4 | – |
| pyraclostrobin [II-6] | – | 36 | 47 | 57 |
